One compound from US9732060B2, “Aminotriazine derivative and pharmaceutical composition comprising the same” (Shionogi & Co., Ltd., priority 2013, dated 2017) can be followed below.

Read-outs that look alike come from different tables or passages of the source.

A short description of data set [1]: Pharmacokinetic test (BA, CLtot). The data set is classed as in vivo. Conditions: rat, plasma, SD rats. How it is done: • (1) Animals: SD rats were used • (2) Breeding conditions: SD rats were allowed to freely take solid food and sterilized tap water. • (3) Dose and grouping: orally or intravenously administered at a predetermined dose; grouping was as follows (Dose depends on the compound)
Oral administration: 1 mg/kg (n=2)
The total body clearance (CLtot) was calculated by dividing the dose by the AUC of the intravenous administration group.

The next data set deals with Rat P2X3 receptor (Rattus norvegicus (Rat), UniProt P49654). Briefly: Evaluation of rat P2X3 receptor inhibitory activity in the presence of rat serum albumin (RSA). It is filed as cell-based. The conditions noted are these: read-out: ratP2X3 + RSA IC50. How it is done:
Rat P2X3 receptor gene (GenBank accession number NM_031075) was expressed in C6BU-1 cell. The C6BU-1 cells were seeded in a 96-well micro titer plate at a concentration of 2500 cells/well and cultured in the medium (7.0% fetal bovine serum, 7.0% horse serum, and 1% antibiotic and antifungal in DMEM) for one day at 37° C. under 5% carbon dioxide atmosphere. The plasmid was transfected into the cells using transfection reagent FuGENE6 (Promega). The transfected cells were cultured in the medium for one day at 37° C. under 5% carbon dioxide atmosphere. The medium was replaced with 4 μM Fluo-4-AM solution (pH 7.5) containing 20 mM HEPES, 137 mM NaCl, 5.27 mM KCl, 0.9 mM MgCl2, 1.26 mM CaCl2, 5.6 mM D-glucose, 2.5 mM probenecid, 10% RSA, and 0.08% Pluronic F-127, and incubated at 37° C. under 5% dioxide carbon atmosphere for one hour. The plate was washed with washing buffer (20 mM HEPES, 137 mM NaCl, 5.27 mM KCl, 0.9 mM MgCl2, 1.26 mM CaCl2, 5.6 mM D-glucose, 2.5 mM probenecid, pH 7.5), and each well was added with 40 μL of this buffer. The plate was placed in High-Throughput Screening System FDSS 3000 (Hamamatsu Photonics K.K.). Measurement of fluorescence intensity by FDSS 3000 was started, and 40 μL of DMSO solutions containing 1% RSA (final concentrations) and different concentrations of the test compound as prepared by dilution with dilution buffer (20 mM HEPES, 137 mM NaCl, 5.27 mM KCl, 0.9 mM MgCl2, 1.26 mM CaCl2, 5.6 mM D-glucose, 2.5 mM probenecid, 0.1% Pluronic F-127, pH 7.5) were dispensed to each well through the built-in automatic dispenser. Five minutes after, 50 nM ATP solution (50 μL) prepared by dilution with the dilution buffer was dispensed through the built-in automatic dispenser, and the measurement of fluorescence intensity was continued for 4 min. For each well, the specific maximum fluorescence intensity was calculated as the ratio of the maximum fluorescence intensity after addition of the ATP solution to the fluorescence intensity at the starting of the measurement. […] FDSS software (Hamamatsu Photonics K.K.) was used for calculation of the specific maximum fluorescence intensity. IC50 was calculated using Microsoft Excel (Microsoft Corporation) and XLfit (idbs Ltd.).

Data set [2] is described as follows: Solubility test (1% DMSO, artificial intestinal juice pH 6.8). It is filed as physicochemical. Conditions: artificial intestinal juice pH 6.8 with 1% DMSO, 25 °C, fassgf or other biorelevant, kinetic from dmso stock, artificial intestinal juice pH 6.8, 25 degrees Celsius, read-out: Solubulity.
The target of a further data set is human P2X3 receptor (Homo sapiens (Human), UniProt P56373). Briefly: Evaluation of human P2X3 receptor inhibitory activity in the presence of human serum albumin (HSA). It is filed as cell-based. Conditions: in the presence of 1% HSA (final concentration). As for the experimental part: Stably expressing cell line (C6BU-1 cell transfected with human P2X3 receptor gene (GenBank accession number Y07683; was used. The cells were seeded in a 96-well microtiter plate at a concentration of 8000 cells/well and cultured in the medium (7.0% fetal bovine serum, 7.0% horse serum, 1% antibiotic and antifungal, and 2.0% glutamine in DMEM) for one day at 37° C. under 5% carbon dioxide atmosphere. The medium was replaced with 4 μM Fluo-3-AM solution (20 mM HEPES, 137 mM NaCl, 5.37 mM KCl, 0.9 mM MgCl2, 1.26 mM CaCl2, 5.6 mM D-glucose, 2.5 mM probenecid, 0.5% BSA, and 0.04% Pluronic F-127, pH 7.5) and incubated at 37° C. under 5% dioxide carbon atmosphere for one hour. The plate was washed with washing buffer (20 mM HEPES, 137 mM NaCl, 5.27 mM KCl, 0.9 mM MgCl2, 1.26 mM CaCl2, 5.6 mM D-glucose, 2.5 mM probenecid, pH 7.5), and each well was added with 40 μL of this buffer. The plate was placed in High-Throughput Screening System FDSS 3000 (Hamamatsu Photonics K.K.). Measurement of fluorescence intensity by FDSS 3000 was started, and 40 μL of DMSO solutions containing 1% HSA (final concentrations) different concentrations of the test compound as prepared by dilution with dilution buffer (20 mM HEPES, 137 mM NaCl, 5.27 mM KCl, 0.9 mM MgCl2, 1.26 mM CaCl2, 5.6 mM D-glucose, 2.5 mM probenecid, 0.1% Pluronic F-127, pH 7.5) were dispensed to each well through the built-in automatic dispenser. Five minutes after, 50 nM ATP solution (50 μL) prepared by dilution with the dilution buffer was dispensed through the built-in automatic dispenser, and the measurement of fluorescence intensity was continued for 4 min. For each well, the specific maximum fluorescence intensity was calculated as the ratio of the maximum fluorescence intensity after addition of the ATP solution to the fluorescence intensity at the starting of the measurement. […] FDSS software (Hamamatsu Photonics K.K.) was used for calculation of the specific maximum fluorescence intensity. IC50 was calculated using Microsoft Excel (Microsoft Corporation) and XLfit (idbs Ltd.)
human P2X3 receptor, sequence (P56373 whole entry): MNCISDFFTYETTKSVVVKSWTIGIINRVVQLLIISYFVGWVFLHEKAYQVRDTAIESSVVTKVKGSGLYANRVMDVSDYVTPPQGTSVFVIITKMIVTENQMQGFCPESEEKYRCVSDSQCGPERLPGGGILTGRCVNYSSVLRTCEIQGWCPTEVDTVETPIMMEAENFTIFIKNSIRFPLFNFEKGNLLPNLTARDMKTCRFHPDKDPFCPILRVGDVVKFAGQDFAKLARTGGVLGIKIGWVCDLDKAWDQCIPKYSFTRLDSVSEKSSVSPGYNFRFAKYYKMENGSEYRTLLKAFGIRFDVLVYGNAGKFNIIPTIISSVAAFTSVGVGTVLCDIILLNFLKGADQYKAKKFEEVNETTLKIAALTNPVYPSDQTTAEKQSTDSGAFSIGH

Rat P2X3 receptor, sequence (P49654 whole entry): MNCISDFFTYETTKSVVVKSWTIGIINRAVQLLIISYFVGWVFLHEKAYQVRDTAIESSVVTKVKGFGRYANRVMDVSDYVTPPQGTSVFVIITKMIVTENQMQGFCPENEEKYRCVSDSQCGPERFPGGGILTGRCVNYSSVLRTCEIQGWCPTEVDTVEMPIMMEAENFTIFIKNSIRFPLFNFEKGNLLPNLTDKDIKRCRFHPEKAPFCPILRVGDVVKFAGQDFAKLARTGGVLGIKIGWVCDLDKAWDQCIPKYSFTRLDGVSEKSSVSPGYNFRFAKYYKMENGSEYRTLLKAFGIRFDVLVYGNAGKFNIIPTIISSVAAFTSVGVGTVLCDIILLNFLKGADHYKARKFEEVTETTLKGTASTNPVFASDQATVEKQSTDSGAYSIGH

`Cc1ccc(Cn2c(=O)n(C[C@H](C)C(=O)O)c(=O)[nH]/c2=N\c2ccc(Oc3ccc(F)cn3)cc2)cc1` [Compound I-040]: the clearance (as a rule, the volume of plasma or blood freed of the substance per unit of time) in data set [1] (intravenous administration 0.5 mg/kg) came to 28.6 mL/min/kg. Further, the AUC (usually concentration integrated over time) in data set [1] (intravenous administration 0.5 mg/kg, read-out: AUC (iv)) came out at 291 ng·h/mL; in data set [1] (oral administration 1 mg/kg, read-out: AUC (po)), 410 ng·h/mL. Also, the values for the IC50 at Rat P2X3 receptor and at human P2X3 receptor were 9 nM and 18 nM, respectively. The solubility at 18 h in data set [2] was more than 50 µM.
